According to publication PMC9841576, “Characterisation of C101248: A novel selective THIK-1 channel inhibitor for the modulation of microglial NLRP3-inflammasome” (Neuropharmacology, 2023):
Where two headings read alike, the source gives them in different places.

How the values were obtained:
[1] = CNS PK study in mice; format: in vivo; details: 30 mg/kg single oral, male mice; for Kp: C57BL/6, mouse, 0.25-2 h post dose
Experimental: In CNS PK studies, rodents (C57BL/6 mice or Sprague Dawley rats) were administered C101248 by oral gavage at 10 or 30 mg/kg. At specified timepoints post dose (0.5, 1, 2 or 4 h), blood samples were collected and processed to plasma (centrifugation at 5000 rpm, 4 °C for 10 min). Immediately following blood withdrawal, cerebrospinal fluid (CSF) samples were collected from the cisterna magna, whole body perfusion was conducted, and brain samples were collected and weighed. Samples were stored frozen at −80 ± 10 °C until analysis. Plasma, CSF, and brain samples were analysed using a fit for purpose bioanalytical method (LC-MS/MS) against a calibration curve containing QC samples. Brain:plasma and CSF:plasma were calculated based on brain concentration/plasma concentration at the same timepoint. Unbound partition coefficient (Kpu,u) values were calculated based on unbound brain concentration/unbound plasma concentration at the same timepoint. Unbound concentrations were derived by adjusting plasma concentrations for the fraction unbound in plasma based on in vitro plasma protein binging (PPB) values and brain concentrations for the unbound fraction in brain tissue based on in vitro brain tissue binding (BTB) values.

[2] = system: NLRP3-dependent release of IL-1β; test: LPS/ATP-induced IL-1β release from differentiated THP1 cells overexpressing human THIK-1; format: cell-based; details: Homo sapiens, THP-1; THIK-1 overexpressing differentiated THP1 cells, LPS/ATP; read-out: IC50, inhibition of IL-1β release
Experimental: THP1 cells, obtained from ATCC, are monocytes isolated from peripheral blood of a leukaemia patient. THP1 cells were grown in RPMI 1640 supplemented with 10% fetal bovine serum (FBS, Hyclone), 1% PenStrep (Invitrogen), and 1% GlutaMax (Invitrogen), and 0.05 mM of 2-mercaptoethanol. To overexpress human THIK-1, THP1 cells were differentiated with 100 ng/ml PMA for 24 h prior to transfection with THIK-1 mRNA synthesized as described in the supplementary material. Cell suspensions (2.5 × 10^6 cells in […]) in the presence of 200 μg/ml mRNA were electroporated with the MaxCyte (STX instrument) in an OC-25 MaxCyte Electroporation cassette using manufacturer settings for THP1 cells. Cell suspensions were transferred to a 6-well plate and allowed to recover for 20 min at 37 °C. Cells were seeded into 384-well plates (10,000 cells/well) for thallium flux assays or 96-well plates (50,000 cells/well) for inflammasome assays the following day. Overexpressing and mock-transfected cells were primed with 100 ng/ml of LPS for 3.5 h prior to addition of compounds 30 min before stimulation with 5 mM ATP. Supernatants were collected 2 h after addition of ATP and stored at −20 °C until the detection of IL-1β.
IL-1β from culture supernatants was measured with DuoSet ELISA kit (R&D Systems) following the manufacturer instructions.

- time of maximal concentration (Cmax) ([1]; brain, CSF and plasma (all matrices)): 1 h
- Kp ([1]; CSF / unbound plasma, read-out: CSF:unbound plasma): 0.8 to 1.2
- Kp ([1]; brain (unbound) / plasma (unbound), read-out: unbound partition coefficient (Kpu,u)): 0.7 to 1.5
- IC50 [2]: 135 nM
SMILES: Nc1nonc1-c1nc2ccccc2n1Cc1ccncc1 [C101248]
